The source of these data is patent publication US9936705B2, “Biocide formulation for protecting the skin, comprising pentahydrate copper salts and heptahydrate zinc salts” (priority 2014, dated 2018).

Where “and” joins values, the source holds several entries; their conditions need not be identical. Equal entries are not always repeated.

Test in all cases: Sensitivity to antimicrobial agents, Kirby-Bauer disk methodology
Common to all, as to format: cell-based

One experiment has as its system CNS. The note with it: clinical bovine mastitis isolates. On the procedure:
(§1) The following antimicrobial agents were assessed (Oxoid Ltd. Hampshire, England): • Amoxicillin/clavulanic acid (AMC), • Trimethropin/sulfamethoxazole (SXT), • Cefotaxime (CTX), • Gentamicin (GN) and • Neomycin (NE).
(§2) The bacterial specimens were analyzed according to the Kirby-Bauer disk methodology following the recommendations provided by the guidelines of the Clinical Laboratory Standards Institute (CLSI 2012b) and the BSAC standard (Andrews and Trial 2008).
(§3) The microorganisms were incubated in Mueller Hinton agar plates at 35° C. for 18-24 hours in aerobics atmosphere. As quality control E. coli (ATCC 25922) and Staphylococcus aureus (25923) were used. The CLSI cut-off points were used to interpret the susceptibility of all microbial agents. For the determination of the cut-off point value for neomycin (NE), the BSAC standard was applied.

The subject of another experiment is E. coli. The note with it: Central Region, clinical bovine mastitis isolates. As to the method:
as §1, §2, §3

For a further experiment, the system named is S. aureus. The conditions noted are these: Southern Region, clinical bovine mastitis isolates. On the procedure:
as §1, §2, §3

A further experiment concerns S. uberis. The note with it: Southern Region, clinical bovine mastitis isolates. On the procedure: as §1, §2, §3

With `CO/N=C(\C(=O)N[C@@H]1C(=O)N2C(C(=O)O)=C(COC(C)=O)CS[C@H]12)c1csc(N)n1` [CTX, Cefotaxime], the “Resistant (%)” value in the experiment on CNS (Central Region) amounted to 0.0%; in the experiment with CNS (Southern Region), 5.9%; with E. coli, 15.4%; in the experiment on S. aureus, 3.6%; in the experiment with S. uberis, 23.8%; in the experiment on S. uberis (listed as CTK), 24%. Also, the “Resistant N°” value in the experiment with CNS (Central Region) was 0; in the experiment on CNS (Southern Region) it was 1; in the experiment on E. coli it was 2; in the experiment with S. aureus, 1; in the experiment on S. uberis, 5.

Regarding `NC[C@@H]1O[C@H](O[C@H]2[C@@H](O)[C@H](O[C@@H]3[C@@H](O)[C@H](N)C[C@H](N)[C@H]3O[C@H]3O[C@H](CN)[C@@H](O)[C@H](O)[C@H]3N)O[C@@H]2CO)[C@H](N)[C@@H](O)[C@@H]1O` [Ne, Neomycin], the “Resistant (%)” value was 15.4% in the experiment on CNS (Central Region); 5.9% in the experiment with CNS (Southern Region); 54% and 53.8% in the experiment on E. coli; 21.4% with S. aureus; 52% and 52.4% in the experiment with S. uberis. The “Resistant N°” value with CNS (Central Region) is on record as 2; in the experiment with CNS (Southern Region) it was 1; with E. coli, 7; in the experiment on S. aureus, 6; in the experiment on S. uberis, 11.

Take Amoxicillin/clavulanic acid [AMC]: the “Resistant (%)” value in the experiment on CNS (Central Region) worked out at 0.0%; with CNS (Southern Region), 0.0%; in the experiment with E. coli, 23.0%; with S. aureus it was 7.1%; in the experiment on S. uberis, 0.0%. For the same compound, the “Resistant N°” value with CNS (Central Region) is listed as 0; in the experiment on CNS (Southern Region), 0; in the experiment on E. coli it was 3; in the experiment with S. aureus it was 2; in the experiment with S. uberis it was 0.

As for Gentamicin [GN], the “Resistant (%)” value was 0.0% in the experiment on CNS (Central Region); 0.0% with CNS (Southern Region); 15.4% in the experiment with E. coli; 0.0% in the experiment with S. aureus; 43% and 42.9% with S. uberis. Besides, the “Resistant N°” value in the experiment with CNS (Central Region) stood at 0; in the experiment with CNS (Southern Region), 0; in the experiment on E. coli, 2; in the experiment on S. aureus, 0; in the experiment with S. uberis, 9.

Consider Trimethropin/sulfamethoxazole [SXT], for which the “Resistant (%)” value in the experiment with CNS (Central Region) worked out at 0.0%; in the experiment on CNS (Southern Region) it was 0.0%; in the experiment on E. coli, 15.4%; with S. aureus, 3.6%; with S. uberis it was 0.0%. The “Resistant N°” value in the experiment with CNS (Central Region) is 0; with CNS (Southern Region), 0; with E. coli, 2; in the experiment on S. aureus, 1; with S. uberis, 0.
